Earlier results as cited in patent publication US20070190117A1 (priority 2003, published 2007).

Settings: galanthamine as hydrobromide or another pharmacologically acceptable salt

half life in plasma: approx. 5 h
Compound: COc1ccc2c3c1O[C@H]1C[C@@H](O)C=C[C@@]31CCN(C)C2 [galanthamine, 4a,5,9,11,12-hexahydro-3-methoxy-11-methyl[6H]-benzofuro-[3a,3,2ef][2]benzazepine-6-ol]
